Assay results reported in patent publication US12569512B2, “Heparan sulfate (HS) oligosaccharides effect in liver ischemia reperfusion injury” (The University of North Carolina at Chapel Hill, priority 2019, dated 2026).

Legend:
[1] = system: MPO; assay: MPO activity in ischemic liver lysate after liver IR; format: in vivo, mouse; conditions: 1 mg/kg SC, 6 h reperfusion
Experimental: Liver ischemia-reperfusion (IR) surgery was performed by the Animal Surgery Core Laboratory of the McAllister Heart Institute, University of North Carolina Chapel Hill, NC. The mouse experiments were approved by the UNC Animal Care and Use Committees and complied with National Institutes of Health guidelines. Male C57BL/6J mice, approximately 8 weeks old, were used in the IR surgeries. Mice received a subcutaneous (SC) injection of 1 mg/kg oligosaccharide or the equivalent volume of saline 30 minutes prior to the surgical procedure. For the combination treatment of 12-mer-3+6-mer-AXa, equal concentration of each oligosaccharide was combined into a single solution. Under ketamine/xylazine anesthesia, an abdominal midline incision was made to expose the portal vein. […]
Ischemia liver lobe was mechanically homogenized in 50 mM CTAB 50 mM potassium phosphate pH 6 at a ratio of 100 μl buffer per 10 mg tissue. […] Total protein concentration was measured by Bradford assay. 10 μl of liver lysate was incubated with 80 μl of 0.75 mM H2O2 and 110 μl of TMB (TMB liquid reagent, ready-to-use, Sigma) for 10 minutes at 37° C. with gentle agitation. The reaction was stopped by addition of 2.5 M H2SO4 and read at 450 nm. Activity (U/g protein) was calculated as absorbance of sample minus the absorbance of the blank divided by incubation time. […]

[2] = system: T1, human FXa (Homo sapiens); assay: In vitro anti-FXa activity of oligosaccharides (chromogenic, with antithrombin); format: biochemical; conditions: for anti-FXa activity (anticoagulant activity): 0-131 nM
T1 construct: purchased Enzyme Research Laboratories (FXa); Cutter Biologics (antithrombin)
T1 sequence (P01008 33-464): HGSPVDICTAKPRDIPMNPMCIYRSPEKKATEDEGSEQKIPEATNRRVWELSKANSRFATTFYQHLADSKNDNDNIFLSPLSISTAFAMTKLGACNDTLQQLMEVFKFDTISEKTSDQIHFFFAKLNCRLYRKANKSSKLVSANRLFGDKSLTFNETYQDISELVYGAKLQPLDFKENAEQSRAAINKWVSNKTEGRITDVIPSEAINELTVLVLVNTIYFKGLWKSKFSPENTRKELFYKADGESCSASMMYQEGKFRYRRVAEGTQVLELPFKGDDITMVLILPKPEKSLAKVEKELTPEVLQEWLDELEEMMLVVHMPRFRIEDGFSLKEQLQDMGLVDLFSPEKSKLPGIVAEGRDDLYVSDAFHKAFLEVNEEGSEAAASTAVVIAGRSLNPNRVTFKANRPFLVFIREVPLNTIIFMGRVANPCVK
Experimental: (§1) Assays were based on a previously published method. Briefly, human FXa (Enzyme Research Laboratories) was diluted to 50 U ml^−1 with PBS. The chromogenic substrate S-2765 (Diapharma) was diluted to 1 mg ml^−1 in water. For in vitro studies, fondaparinux (available under the trade name ARIXTRA) and 12-mer oligosaccharides were dissolved in PBS at various concentrations (0-131 nM). 16 μl of sample was incubated with 60 μl of […] antithrombin (Cutter Biologics) for 2 min at room temperature. Next, 100 μl of FXa was added and incubated for 4 min at room temperature. 30 μl of S-2765 substrate was added and the absorbance of the reaction mixture was measured at 405 nm continuously for 5 min. PBS serves as a control sample. The maximum slope for each sample was convert to percent FXa activity by dividing by the maximum slope for the control sample.

[3] = system: liver IR injury mouse model; assay: Liver ischemia-reperfusion (IR) injury mouse model: plasma markers and histology; format: in vivo; conditions: 6 h reperfusion, vs IR; for hepatic necrotic area in ischemic lobe (H&E) / plasma ALT: 1 mg/kg SC 30 min before 60 min ischemia; for neutrophil infiltration into ischemic liver (immunohistochemistry): 1 mg/kg SC
Experimental: Liver ischemia-reperfusion (IR) surgery was performed by the Animal Surgery Core Laboratory of the McAllister Heart Institute, University of North Carolina Chapel Hill, NC. The mouse experiments were approved by the UNC Animal Care and Use Committees and complied with National Institutes of Health guidelines. Male C57BL/6J mice, approximately 8 weeks old, were used in the IR surgeries. Mice received a subcutaneous (SC) injection of 1 mg/kg oligosaccharide or the equivalent volume of saline 30 minutes prior to the surgical procedure. For the combination treatment of 12-mer-3+6-mer-AXa, equal concentration of each oligosaccharide was combined into a single solution. Under ketamine/xylazine anesthesia, an abdominal midline incision was made to expose the portal vein. A clamp was placed on the portal vein and bile duct to three major liver lobes to cause a 70% hepatic ischemia. Visible blanching of the ischemic liver lobes confirmed correct placement of the clamp. A temporary stitch closure of the muscle and skin over the clamp was used to prevent dehydration during the ischemia phase. Mice stayed on a heating pad and under anesthesia during the ischemia phase (60 minutes). The clamp was removed after 60 minutes and the ischemia liver lobes regained their red color as blood began to reperfusion the tissue, an indicator of correct reperfusion occurring. The incisions were closed in two layers with 5-0 silk sutures and the mice returned to their active state (no anesthesia used during the reperfusion phase). After 6 hours, the mice were re-anaesthetized, blood was drawn via cardiac puncture and ischemia liver lobes were harvested for histology (fixed in 10% formalin).
Plasma ALT was measured using the ALT Infinity reagent (Thermo Fisher) following the manufacturer's instructions. Plasma TNF-α was measured using Mouse TNF-α DuoSet Kit (R&D Systems) according to the manufacturer's instructions. Plasma HMGB1 levels were determined using HMGB1 ELISA Kit (Tecan US) according to the manufacturer's instructions. Plasma syndecan-1 levels were determined using Mouse Syndecan-1 ELISA (CellSciences) according to manufacturer's instructions. Plasms IL-6 levels were determined using Mouse IL-6 ELISA (R&D Systems).
Ischemia liver tissues were fixed in 10% neutral buffered formalin for 24 hours at room temperature, paraffin-embedded, and sectioned. Liver sections (4 μm) were stained with hematoxylin-eosin (H&E) or immunostained with monoclonal antibodies anti-neutrophil (Abcam, Ab 2557, NIMP-R14) followed by goat anti-rat or goat anti-rabbit biotinylated secondary antibodies (Abcam). Embedding, sectioning and H&E staining were performed at the Animal Histopathology and Laboratory Medicine Core Facility at UNC Chapel Hill. H&E analyses were performed by the Translational Pathology Laboratory Core Facility at UNC Chapel Hill using Aperio ImageScope Software (Leica Biosystems, Concord, Canada). IHC images were captured using an HD camera attached to a bright field microscope (Leica DM 1000 LED, Leica Microsystems Inc., IL, USA) and were processed using ImageJ. For neutrophil quantitation, five 100× images were randomly selected for each sample and the average neutrophils/field were reported.
1 mg/kg of 18-mer or equal volume of sterile saline was administered by subcutaneous injection 30 minutes prior to start of the ischemia phase. Ischemia to 70% of the liver was caused by clamping the portal vein and bile duct for 60 minutes. After the clamp was removed, the reperfusion phase last 6 hours before the animals were sacrificed for collection of liver tissue and blood. For surgical controls, a sham operation was performed such that the animal experienced the same anesthesia, abdominal midline incision, and suturing as the IR mice (FIG. 11A).

[4] = molecular target: T2, HMGB1 (Mus musculus, UniProt P63158); assay: Affinity purification (pulldown) of HMGB1 from liver lysate with biotinylated oligosaccharides, Western analysis; format: binding; conditions: biotinylated oligosaccharide 0.1 mM, Western blot
T2 construct: used to pull down endogenous HMGB1 from liver lysate; from tissue; host or cells: liver lysate
T2 sequence (P63158 1-215): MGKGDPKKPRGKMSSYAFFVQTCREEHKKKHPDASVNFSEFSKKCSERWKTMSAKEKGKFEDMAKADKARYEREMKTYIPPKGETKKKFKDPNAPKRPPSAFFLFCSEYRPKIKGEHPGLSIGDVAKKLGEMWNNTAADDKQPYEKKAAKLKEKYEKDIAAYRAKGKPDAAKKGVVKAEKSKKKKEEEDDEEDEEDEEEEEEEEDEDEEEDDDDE
Experimental: The oligosaccharides were converted to biotinylated versions using the same method as described in PCT International Patent Application Serial No. PCT/US2018/059152. Briefly, 12-mers and 6-mer-AXa with a pNP tag (5-10 mg) and 0.5 mg Pd/C were dissolved in 20 mM NaOAc, pH 5.0 in a total volume of 4 ml. Reaction mixture was vacuumed and refilled with H2 three times. The reaction was then incubated at room temperature for 4 h. After that, it was filtered to remove charcoal. The filtered solution was adjusted to pH 8.5 using 500 mM Na2HPO4. Succinimidyl 6-azidohexanoate (20 molar equivalent of starting oligosaccharides) was added and incubated at 37° C. overnight. Reaction was purified by DEAE-HPLC column to generate azido tagged oligosaccharides. PBS (pH7.4) buffer was bubbled with N2 for 5 min to prepare the sample solution of 0.1 M CuSO4, 0.1 M Tris(3-hydroxypropyl-triazolylmethyl)amine (THPTA)(Sigma), 0.15 M sodium ascorbate, 0.01 M azido tagged oligosaccharides and 0.02 M biotin-PEG4-alkyne (Sigma). The mixture of […] and 80 μl CuSO4 was vortexed, then 160 μl sodium ascorbate, 200 μl azido tagged oligomers and 200 μl biotin-PEG4-alkyne was added and bubbled with N2 for 2 min, then incubated at 37° C. overnight. The reaction was purified by DEAE-HPLC column to generate biotinylated products. The biotinylated 12-mers and 6-mer-AXa products were confirmed by ESI-MS.
Briefly, liver lysate was prepared by snap freezing tissue in liquid nitrogen at the time of sacrifice. The tissue was mechanically homogenized in buffer containing 200 mM MES, 500 mM phosphate, and 1 mM EDTA at pH 6 followed by three rounds of freeze thawing. The lysed sample were centrifuged at 10,000× g for 15 min at 4° C. Biotinylated HS oligosaccharides (final concentration 0.1 mM) were mixed with 20 μl of fresh liver lysate (˜0.6 mg) in 100 mM NaCl 20 mM HEPES pH 7.2 and incubated overnight at 4° C. The purification and biotinylated HS bound complex where achieved using avidin-Sepharose and increasing concentration of NaCl washes. […]

[5] = system: T3, FXa (Homo sapiens); assay: Ex vivo plasma FXa activity of mice after liver IR; format: in vivo, mouse; conditions: 1 mg/kg SC 30 min before ischemia; plasma after 6 h reperfusion; vs IR
T3 construct: purchased Enzyme Research Laboratories (FXa); Cutter Biologics (antithrombin)
T3 sequence (P01008 33-464): as the sequence (P01008 33-464) above
Experimental: as §1
For ex vivo studies, mouse plasma collected after the 6 hour reperfusion period and assayed the same as described above.
Liver ischemia-reperfusion (IR) surgery was performed by the Animal Surgery Core Laboratory of the McAllister Heart Institute, University of North Carolina Chapel Hill, NC. The mouse experiments were approved by the UNC Animal Care and Use Committees and complied with National Institutes of Health guidelines. Male C57BL/6J mice, approximately 8 weeks old, were used in the IR surgeries. […]

[6] = system: T1, human FXa (Homo sapiens); conditions: as previously demonstrated [15]; cited from earlier work
[7] = kidney IR model; cited from earlier work
[8] = system: rat model; conditions: elevated doses; cited from earlier work
[9] = system: liver IR injury in rats; conditions: cited from earlier work

Compound	anti-FXa activity (anticoagulant activity) [2]	hepatic necrotic area in ischemic lobe (H&E) [3]	plasma ALT [3]	neutrophil infiltration into ischemic liver (immunohistochemistry) [3]	HMGB1 pulldown from liver lysate [4]	plasma FXa activity [5]	other results
GlcNS6S-GlcA-GlcNS6S-IdoA2S-GlcNS6S-IdoA2S-GlcNS6S-IdoA2S-GlcNS6S-IdoA2S-GlcNS6S-GlcA-pNP [12-mer-3]	did not display anti-FXa activity	not 12-mer-3 decreased ALT and necrosis	not 12-mer-3 decreased ALT	did not	successfully pull down HMGB1	–	MPO activity [1]: 96.00 U/g protein
GlcNS6S-GlcA-GlcNS6S-GlcA-GlcNS6S-GlcA-GlcNS6S-GlcA-GlcNS6S-GlcA-GlcNS6S-GlcA-pNP [12-mer-4]	did not display anti-FXa activity	–	–	–	–	–	–
GlcNS6S-GlcA-GlcNS6S3S-IdoA2S-GlcNS6S-GlcA-pNP [6-mer-AXa]	–	–	no statistical difference in the concentration of ALT	–	does not pull down HMGB1	Anticoagulant levels are similar between both treatment groups	anticoagulant activity through inhibition of FXa [6]: has anticoagulant activity through inhibition of FXa
GlcNS-GlcA-GlcNS-IdoA2S-GlcNS-IdoA2S-GlcNS-IdoA2S-GlcNS-IdoA2S-GlcNS-GlcA-pNP [12-mer-2]	did not display anti-FXa activity	–	–	–	–	–	–
GlcNS6S-GlcA-GlcNS6S3S-IdoA2S-GlcNS6S-IdoA2S-GlcNS6S-IdoA2S-GlcNS6S-IdoA2S-GlcNS6S-GlcA-pNP [12-mer-1]	–	decreased hepatic necrosis	significantly decreased plasma ALT	decreased neutrophil infiltration	successfully pull down HMGB1	significantly decreased FXa activity	decrease of MPO activity compared to the IR group [1]: 60%; IC50 ([2]; with antithrombin, substrate S-2765): 0.063 µM; renal clearance [7]: renal clearance impairment of 12-mer-1 was demonstrated; toxicity [8]: no toxicity
CC(=N)N1CC[C@H](Oc2ccc([C@H](Cc3ccc4ccc(C(=N)N)cc4c3)C(=O)O)cc2)C1 [DX9065a]	–	–	–	–	–	–	liver IR injury [9]: no protection
